Structures can show the parent of a compound that is named as a salt.
Target: T1, sigma 2 receptor (Rattus norvegicus, UniProt Q5U3Y7)
T1 construct: A crude P2 membrane fraction was prepared from livers of male rats (Sprague-Dawley rats); from tissue; host or cells: rat liver (male Sprague-Dawley), crude P2 membrane fraction
T1 sequence (Q5U3Y7 1-176): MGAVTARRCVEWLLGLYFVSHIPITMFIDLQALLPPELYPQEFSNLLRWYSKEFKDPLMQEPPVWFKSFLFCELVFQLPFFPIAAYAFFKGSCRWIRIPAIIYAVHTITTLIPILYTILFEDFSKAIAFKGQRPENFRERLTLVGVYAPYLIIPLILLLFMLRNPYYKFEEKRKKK
Experiment: Sigma 2-selective receptor binding inhibition test ([3H]-DTG, rat liver P2 membrane fraction)
Details: [3H]-DTG 1 nM, 500 nM pentazocine; for Inhibitory rate against sigma 2 (%, 10 nM) / inhibition at 0.01 µM: test compound 10 nM, rat liver P2 fraction; for Ki: P2 fraction of livers of male Sprague-Dawley rats, 25° C., 2 hours; for inhibition at 0.01 µM: read-out: Inhibitory rate against sigma 2 (%, 10 nM)
Protocol: Sigma Binding Site-Binding Inhibition Test
A crude P2 membrane fraction was prepared from livers of male rats (Sprague-Dawley rats) according to a method described in the literature (X. He, et al., J. Med. Chem., 36, pp. 566–571, 1993). In the presence of 500 nM pentazocine and a control compound at various concentrations (haloperidol, 10^−10 to 10^−6 M) or a test ligand at various concentrations (10^−10 to 10^−5 M) together with a radioactive ligand, the P2 fraction (0.4 ml) was incubated in 50 mM Tris-HCl (pH 7.4, final volume: 0.5 ml) at 25° C. for 2 hours. The reaction mixture was rapidly filtered on a Brandel cell harvester using Whatman GF/B filter paper, which was immersed beforehand in 0.5% polyethyleneimine for 1 hour, to stop the reaction. The filter paper was washed 4 times with the ice cooled incubation buffer. The non-specific results were evaluated by using 1 μM haloperidol, and the scintillation analysis and the curve analysis were performed as described above.

SMILES	Inhibitory rate against sigma 2 (%, 10 nM)	Ki	inhibition at 0.01 µM
Cl.O=C(CN1CCC(CN2Cc3ccccc3C2=O)CC1)c1cccn1-c1ccccc1 [Example 95, 2-[[1-[2-[2-(1-Phenyl)pyrrolyl]-2-oxoethyl]piperidin-4-yl]methyl]-isoindolin-1-one hydrochloride]	69%	–	–
O=C(CN1CCC(CN2Cc3ccccc3C2=O)CC1)N1CCCCC1 [Example 50, 2-[[1-[2-Oxo-2-(piperidin-1-yl)ethyl]piperidin-4-yl]methyl]isoindolin-1-one fumarate]	–	14 nM	52%
O=C1c2ccccc2CN1CC1CCN(CC(=O)N2CCCc3ccccc32)CC1 [Example 48, 2-[[1-[2-(1,2,3,4-Tetrahydroquinolin-1-yl)-2-oxoethyl]piperidin-4-yl]methyl]isoindolin-1-one hydrochloride]	–	–	59%
O=C(CN1CCC(CN2Cc3ccccc3C2=O)CC1)c1ccc(F)cc1 [Example 1, 2-[[1-[2-(4-Fluorophenyl)-2-oxoethyl]piperidin-4-yl]methyl]isoindolin-1-one hydrochloride]	–	13 nM	–
COc1ccccc1SCCN1CCC(CN2Cc3ccccc3C2=O)CC1.O=C(O)/C=C/C(=O)O [Example 110]	68%	–	–
O=C(CCCN1CCC(CN2Cc3ccccc3C2=O)CC1)c1ccc(F)cc1 [Example 31, 2-[[1-[4-(4-Fluorophenyl)-4-oxobutyl]piperidin-4-yl]methyl]isoindolin-1-one hydrochloride]	–	22 nM	–
CC(C)(C)C(=O)CN1CCC(CN2Cc3ccccc3C2=O)CC1 [Example 24, 2-[[1-(3,3-Dimethyl-2-oxobutyl)piperidin-4-yl]methyl]isoindolin-1-one hydrochloride]	–	13 nM	–
COc1cccc(SCCN2CCC(CN3Cc4ccccc4C3=O)CC2)c1 [Example 111, 2-[[1-[2-(3-Methoxyphenylthio)ethyl]piperidin-4-yl]methyl]isoindolin-1-one fumarate]	–	–	51%
O=C1c2ccccc2CN1CC1CCN(CCN2CCc3ccccc32)CC1 [Example 53, 2-[[1-[2-(Indolin-1-yl)ethyl]piperidin-4-yl]methyl]isoindolin-1-one fumarate]	–	–	57%
O=C1c2ccccc2CN1CC1CCN(CCSc2ccccc2)CC1 [Example 109, 2-[[1-[2-(Phenylthio)ethyl]piperidin-4-yl]methyl]isoindolin-1-one fumarate]	–	–	68%
COc1ccccc1CCN1CCC(CN2Cc3ccccc3C2=O)CC1 [Example 26, 2-[[1-[2-(2-Methoxyphenyl)ethyl]piperidin-4-yl]methyl]isoindolin-1-one hydrochloride]	–	10 nM	–
O=C(CN1CCC(CN2Cc3ccccc3C2=O)CC1)c1cccc(Cl)c1 [Example 76, 2-[[1-[2-(3-Chlorophenyl)-2-oxoethyl]piperidin-4-yl]methyl]isoindolin-1-one fumarate]	–	–	84%
O=C1c2ccc(Cl)cc2CN1CC1CCN(CCOc2ccc(F)cc2)CC1 [Example 178, 5-Chloro-2-[1-[2-(4-fluorophenoxy)ethyl]piperidin-4-ylmethyl]isoindolin-1-one fumarate]	–	–	50%
COc1ccc2c(c1)CN(CC1CCN(CCc3ccc(F)cc3)CC1)C2=O [Example 159, 5-Methoxy-2-[1-[2-(4-fluorophenyl)ethyl]piperidin-4-ylmethyl]isoindolin-1-one fumarate]	–	25 nM	–
Cc1ccccc1C(=O)CN1CCC(CN2Cc3ccccc3C2=O)CC1 [Example 77, 2-[[1-[2-(2-Tolyl)-2-oxoethyl]piperidin-4-yl]methyl]isoindolin-1-one fumarate]	–	–	80%
O=C1c2ccccc2CN1CC1CCN(CCc2cccc3ccccc23)CC1 [Example 97, 2-[[1-[2-(1-Naphthyl)ethyl]piperidin-4-yl]methyl]isoindolin-1-one fumarate]	–	–	59%
O=C(CN1CCC(CN2Cc3cc(F)ccc3C2=O)CC1)c1ccc(F)cc1 [Example 154, 5-Fluoro-2-[[1-[2-(4-fluorophenyl)-2-oxoethyl]piperidin-4-yl]methyl]isoindolin-1-one hydrochloride]	–	16 nM	–

SMILES	Inhibitory rate against sigma 2 (%, 10 nM)	Ki	inhibition at 0.01 µM
O=C(CN1CCC(CN2CCc3ccccc3C2=O)CC1)c1ccc(F)cc1 [Example 137, 2-[[1-[2-(4-Fluorophenyl)-2-oxoethyl]piperidin-4-yl]methyl]-3,4-dihydroisoquinolin-1(2H)-one hydrochloride]	–	7.8 nM	–
O=C1c2ccccc2CN1CC1CCN(CCOc2ccc(F)cc2)CC1 [Example 32, 2-[[1-[2-(4-Fluorophenyloxy)ethyl]piperidin-4-yl]methyl]isoindolin-1-one hydrochloride]	–	2.8 nM	–
O=C(CN1CCC(CN2Cc3c(Br)cccc3C2=O)CC1)c1ccc(F)cc1 [Example 2, 4-Bromo-2-[[1-[2-(4-fluorophenyl)-2-oxoethyl]piperidin-4-yl]methyl]isoindolin-1-one hydrochloride]	–	2.8 nM	–
O=C(CN1CCC(CN2Cc3ccc(Br)cc3C2=O)CC1)c1ccc(F)cc1 [Example 4, 6-Bromo-2-[[1-[2-(4-fluorophenyl)-2-oxoethyl]piperidin-4-yl]methyl]isoindolin-1-one hydrochloride]	–	7.6 nM	–
O=C1c2cccc(F)c2CN1CC1CCN(CCOc2ccc(F)cc2)CC1 [Example 181, 4-Fluoro-2-[1-[2-(4-fluorophenoxy)ethyl]piperidin-4-ylmethyl]isoindolin-1-one fumarate]	–	–	70%
CCCCn1cccc1C(=O)CN1CCC(CN2Cc3ccccc3C2=O)CC1.Cl [Example 94, 2-[[1-[2-[2-(1-Butyl)pyrrolyl]-2-oxoethyl]piperidin-4-yl]methyl]isoindolin-1-one hydrochloride]	83%	–	–
O=C1c2ccccc2CN1CC1CCN(CC(=O)N2CCc3ccccc32)CC1 [Example 51, 2-[[1-[2-(Indolin-1-yl)-2-oxoethyl]piperidin-4-yl]methyl]isoindolin-1-one fumarate]	–	–	74%
O=C1c2ccccc2CN1CC1CCN(CCOc2cccc(F)c2)CC1 [Example 118, 2-[[1-[2-(3-Fluorophenoxy)ethyl]piperidin-4-yl]methyl]isoindolin-1-one fumarate]	–	–	50%
Cc1cccc(C(=O)CN2CCC(CN3Cc4ccccc4C3=O)CC2)c1 [Example 78, 2-[[1-[2-(3-Tolyl)-2-oxoethyl]piperidin-4-yl]methyl]isoindolin-1-one fumarate]	–	–	86%
O=C(CN1CCC(CN2Cc3ccccc3C2=O)CC1)c1ccccc1 [Example 13, 2-[[1-(2-Phenyl-2-oxoethyl)piperidin-4-yl]methyl]isoindolin-1-one hydrochloride]	–	6.6 nM	–
O=C(CN1CCC(CN2Cc3ccccc3C2=O)CC1)C1CCCCC1 [Example 84, 2-[[1-(2-Cyclohexyl-2-oxoethyl)piperidin-4-yl]methyl]isoindolin-1-one fumarate]	–	3.4 nM	58%
O=C1c2ccccc2CN1CC1CCN(CC(O)C2CCCCC2)CC1 (centres unmarked) [Example 85, 2-[[1-(2-Cyclohexyl-2-hydroxyethyl)piperidin-4-yl]methyl]isoindolin-1-one fumarate]	–	–	59%
O=C1c2ccc(Br)cc2CN1CC1CCN(CCc2ccc(F)cc2)CC1 [Example 160, 5-Bromo-2-[1-[2-(4-fluorophenyl)ethyl]piperidin-4-ylmethyl]isoindolin-1-one fumarate]	–	10 nM	–
O=C1c2ccccc2CN1CC1CCN(CCSc2cccc(F)c2)CC1 [Example 113, 2-[[1-[2-(3-Fluorophenylthio)ethyl]piperidin-4-yl]methyl]isoindolin-1-one fumarate]	–	–	64%
O=C1c2ccc(Br)cc2CN1CC1CCN(CCOc2ccc(F)cc2)CC1 [Example 177, 2-[1-[2-(4-Fluorophenyloxy)ethyl]piperidin-4-ylmethyl]-5-bromoisoindolin-1-one hydrochloride]	–	–	55%
O=C1c2ccccc2CN1CC1CCN(CCc2c[nH]c3ccccc23)CC1 [Example 36, 2-[[1-[2-(Indol-3-yl)ethyl]piperidin-4-yl]methyl]isoindolin-1-one ½.fumarate]	–	50 nM	–
